Source: ChEMBL document CHEMBL1212697, “High-content single-cell drug screening with phosphospecific flow cytometry” (Nat Chem Biol, 2008)
One block for each compound: values may come before it.

How the values were obtained:
[1] = Inhibition of JAK-mediated IL4-induced Stat5 phosphorylation in BALB/c mouse CD11b-int macrophages by Phospho-Flow cytometry
[2] = Inhibition of JAK-mediated IL6-induced Stat1 phosphorylation in BALB/c mouse B cells by Phospho-Flow cytometry; type: cell-based
[3] = Inhibition of JAK-mediated IL10-induced Stat3 phosphorylation in BALB/c mouse B cells by Phospho-Flow cytometry; type: cell-based
[4] = Inhibition of JAK-mediated interferon-gamma-induced Stat1 phosphorylation in BALB/c mouse B cells by Phospho-Flow cytometry; type: cell-based
[5] = Inhibition of JAK-mediated IL6-induced Stat3 phosphorylation in BALB/c mouse B cells by Phospho-Flow cytometry; type: cell-based
[6] = Inhibition of JAK-mediated IL15-induced Stat5 phosphorylation in BALB/c mouse B cells by Phospho-Flow cytometry; type: cell-based
[7] = Inhibition of JAK-mediated IL7-induced Stat5 phosphorylation in BALB/c mouse B cells by Phospho-Flow cytometry; type: cell-based
[8] = Inhibition of JAK-mediated IL4-induced Stat5 phosphorylation in BALB/c mouse B cells by Phospho-Flow cytometry; type: cell-based
[9] = Inhibition of JAK-mediated IL6-induced Stat1 phosphorylation in BALB/c mouse CD4+ T cells by Phospho-Flow cytometry; type: cell-based; conditions: T-cell
[10] = Inhibition of JAK-mediated IL10-induced Stat3 phosphorylation in BALB/c mouse CD4+ T cells by Phospho-Flow cytometry; type: cell-based; conditions: T-cell
[11] = Inhibition of JAK-mediated interferon-gamma-induced Stat1 phosphorylation in BALB/c mouse CD4+ T cells by Phospho-Flow cytometry; type: cell-based; conditions: T-cell
[12] = Inhibition of JAK-mediated IL6-induced Stat3 phosphorylation in BALB/c mouse CD4+ T cells by Phospho-Flow cytometry; type: cell-based; conditions: T-cell
[13] = Inhibition of JAK-mediated IL15-induced Stat5 phosphorylation in BALB/c mouse CD4+ T cells by Phospho-Flow cytometry; type: cell-based; conditions: T-cell
[14] = Inhibition of JAK-mediated IL7-induced Stat5 phosphorylation in BALB/c mouse CD4+ T cells by Phospho-Flow cytometry; type: cell-based; conditions: T-cell
[15] = Inhibition of JAK-mediated IL4-induced Stat6 phosphorylation in BALB/c mouse CD4+ T cells by Phospho-Flow cytometry; type: cell-based; conditions: T-cell
[16] = Inhibition of JAK-mediated IL4-induced Stat5 phosphorylation in BALB/c mouse CD4+ T cells by Phospho-Flow cytometry; type: cell-based; conditions: T-cell
[17] = Inhibition of JAK-mediated IL6-induced Stat1 phosphorylation in BALB/c mouse CD8+ T cells by Phospho-Flow cytometry; type: cell-based; conditions: T-cell
[18] = Inhibition of JAK-mediated IL10-induced Stat3 phosphorylation in BALB/c mouse CD8+ T cells by Phospho-Flow cytometry; type: cell-based; conditions: T-cell
[19] = Inhibition of JAK-mediated interferon-gamma-induced Stat1 phosphorylation in BALB/c mouse […] T cells by Phospho-Flow cytometry; type: cell-based; conditions: T-cell
[20] = Inhibition of JAK-mediated IL6-induced Stat3 phosphorylation in BALB/c mouse CD8+ T cells by Phospho-Flow cytometry; type: cell-based; conditions: T-cell
[21] = Inhibition of JAK-mediated IL15-induced Stat5 phosphorylation in BALB/c mouse CD8+ T cells by Phospho-Flow cytometry; type: cell-based; conditions: T-cell
[22] = Inhibition of JAK-mediated IL7-induced Stat5 phosphorylation in BALB/c mouse CD8+ T cells by Phospho-Flow cytometry; type: cell-based; conditions: T-cell
[23] = Inhibition of JAK-mediated IL4-induced Stat6 phosphorylation in BALB/c mouse CD8+ T cells by Phospho-Flow cytometry; type: cell-based; conditions: T-cell
[24] = Inhibition of JAK-mediated IL4-induced Stat5 phosphorylation in BALB/c mouse CD8+ T cells by Phospho-Flow cytometry; type: cell-based; conditions: T-cell
[25] = Inhibition of JAK-mediated IL6-induced Stat1 phosphorylation in BALB/c mouse CD11b-hi neutrophils by Phospho-Flow cytometry
[26] = Inhibition of JAK-mediated IL10-induced Stat3 phosphorylation in BALB/c mouse CD11b-hi neutrophils by Phospho-Flow cytometry
[27] = Inhibition of JAK-mediated interferon-gamma-induced Stat1 phosphorylation in BALB/c mouse CD11b-hi neutrophils by Phospho-Flow cytometry
[28] = Inhibition of JAK-mediated IL6-induced Stat3 phosphorylation in BALB/c mouse CD11b-hi neutrophils by Phospho-Flow cytometry
[29] = Inhibition of JAK-mediated IL15-induced Stat5 phosphorylation in BALB/c mouse CD11b-hi neutrophils by Phospho-Flow cytometry
[30] = Inhibition of JAK-mediated IL7-induced Stat5 phosphorylation in BALB/c mouse CD11b-hi neutrophils by Phospho-Flow cytometry
[31] = Inhibition of JAK-mediated IL4-induced Stat5 phosphorylation in BALB/c mouse CD11b-hi neutrophils by Phospho-Flow cytometry
[32] = Inhibition of JAK-mediated IL6-induced Stat1 phosphorylation in BALB/c mouse CD11b-int macrophages by Phospho-Flow cytometry
[33] = Inhibition of JAK-mediated IL10-induced Stat3 phosphorylation in BALB/c mouse CD11b-int macrophages by Phospho-Flow cytometry
[34] = Inhibition of JAK-mediated interferon-gamma-induced Stat1 phosphorylation in BALB/c mouse CD11b-int macrophages by Phospho-Flow cytometry
[35] = Inhibition of JAK-mediated IL6-induced Stat3 phosphorylation in BALB/c mouse CD11b-int macrophages by Phospho-Flow cytometry
[36] = Inhibition of JAK-mediated IL15-induced Stat5 phosphorylation in BALB/c mouse CD11b-int macrophages by Phospho-Flow cytometry
[37] = Inhibition of JAK-mediated IL7-induced Stat5 phosphorylation in BALB/c mouse CD11b-int macrophages by Phospho-Flow cytometry
[38] = Inhibition of JAK-mediated IL4-induced Stat6 phosphorylation in BALB/c mouse CD11b-int macrophages by Phospho-Flow cytometry
MAP kinase p38 [39] = biological target: T1, MAP kinase p38 (Homo sapiens, UniProt O15264+Q15759+Q16539+P53778); experiment: Inhibition of anisomycin-induced p38 phosphorylation in human U937 cells by Phospho-Flow cytometry; type: cell-based; conditions: u-937
[40] = biological target: T2, Janus Kinase (JAK) (Homo sapiens) (UniProt P52333+P23458+O60674+P29597); experiment: Inhibition of JAK-mediated GM-CSF-induced Stat5 phosphorylation in human U937 cells by Phospho-Flow cytometry at 20 uM; type: cell-based; conditions: U-937
[41] = biological target: T2, Janus Kinase (JAK) (Homo sapiens); experiment: Inhibition of JAK-mediated interferon-gamma-induced Stat1 phosphorylation in human U937 cells by Phospho-Flow cytometry at 20 uM; type: cell-based; conditions: U-937
MAP kinase p38 [42] = biological target: T1, MAP kinase p38; experiment: Inhibition of anisomycin-induced p38 phosphorylation in human U937 cells by Phospho-Flow cytometry at 20 uM; type: cell-based; conditions: U-937

IC50 [1]: < 20 µM
IC50 [2]: < 20 µM
IC50 [3]: < 20 µM
IC50 [4]: < 20 µM
IC50 [5]: < 20 µM
IC50 [6]: < 20 µM
IC50 [7]: < 20 µM
IC50 [8]: < 20 µM
IC50 [9]: < 20 µM
IC50 [10]: < 20 µM
IC50 [11]: < 20 µM
IC50 [12]: < 20 µM
IC50 [13]: < 20 µM
IC50 [14]: < 20 µM
IC50 [15]: < 20 µM
IC50 [16]: < 20 µM
IC50 [17]: < 20 µM
IC50 [18]: < 20 µM
IC50 [19]: < 20 µM
IC50 [20]: < 20 µM
IC50 [21]: < 20 µM
IC50 [22]: < 20 µM
IC50 [23]: < 20 µM
IC50 [24]: < 20 µM
IC50 [25]: < 20 µM
IC50 [26]: < 20 µM
IC50 [27]: < 20 µM
IC50 [28]: < 20 µM
IC50 [29]: < 20 µM
IC50 [30]: < 20 µM
IC50 [31]: < 20 µM
IC50 [32]: < 20 µM
IC50 [33]: < 20 µM
IC50 [34]: < 20 µM
IC50 [35]: < 20 µM
IC50 [36]: < 20 µM
IC50 [37]: < 20 µM
IC50 [38]: < 20 µM
Compound: C=CC(=O)c1ccc2ccccc2c1

Compound: COC1=C[C@]23CCCN2CCc2cc4c(cc2[C@@H]3[C@@H]1O)OCO4 [CEPHALOTAXINE]
IC50 (MAP kinase p38 [39]): 0.2 µM
inhibition [40]: 25%
inhibition [41]: > 65%
inhibition (MAP kinase p38 [42]): 25%
